Test results as given in patent US20100298141A1, “SUBSTITUTED PYRIDINE N-OXIDE HERBICIDES” (E. I. DU PONT DE NEMOURS AND COMPANY, priority 2007, published 2010).

Assays:
barnyardgrass [1] = test: Test A pre-/postemergence greenhouse test; type: in vivo, Echinochloa crus-galli; conditions: for Plant response rating, Barnyardgrass: 0 to 100 scale where 0 is no effect and 100 is complete control; for Barnyardgrass plant response rating: 0 to 100 scale
Outline: (§1)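 Visual injury ratings against untreated controls, taken roughly ten days after treatment in greenhouse. Plants were sprayed postemergence at one- to two-leaf stage (2–10 cm tall); at the same time, seeded loam/sand soil received a directed preemergence spray. Formulation: non-phytotoxic solvent mixture with surfactant.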

crabgrass = test: Test A pre-/postemergence greenhouse test; type: in vivo, Digitaria sanguinalis; conditions: for Plant response rating, Crabgrass, Large: 0 to 100 scale where 0 is no effect and 100 is complete control; for Crabgrass, Large plant response rating: 0 to 100 scale
Outline: as §1

giant foxtail = test: Test A pre-/postemergence greenhouse test; type: in vivo, Setaria faberi; conditions: for Plant response rating, Foxtail, Giant: 0 to 100 scale where 0 is no effect and 100 is complete control; for Foxtail, Giant plant response rating: 0 to 100 scale
Outline: as §1

morningglory = test: Test A pre-/postemergence greenhouse test; type: in vivo, Ipomoea spp.; conditions: for Plant response rating, Morningglory: 0 to 100 scale where 0 is no effect and 100 is complete control; for Morningglory plant response rating: 0 to 100 scale
Outline: as §1

redroot pigweed = test: Test A pre-/postemergence greenhouse test; type: in vivo, Amaranthus retroflexus; conditions: for Plant response rating, Pigweed: 0 to 100 scale where 0 is no effect and 100 is complete control; for Pigweed plant response rating: 0 to 100 scale
Outline: as §1

velvetleaf = test: Test A pre-/postemergence greenhouse test; type: in vivo, Abutilon theophrasti; conditions: for Plant response rating, Velvetleaf: 0 to 100 scale where 0 is no effect and 100 is complete control; for Velvetleaf plant response rating: 0 to 100 scale
Outline: as §1

wheat = test: Test A pre-/postemergence greenhouse test; type: in vivo, Triticum aestivum; conditions: for Plant response rating, Wheat: 0 to 100 scale where 0 is no effect and 100 is complete control; for Wheat plant response rating: 0 to 100 scale
Outline: as §1

corn = test: Test A pre-/postemergence greenhouse test; type: in vivo, Zea mays; conditions: for Plant response rating, Corn: 0 to 100 scale where 0 is no effect and 100 is complete control; for Corn plant response rating: 0 to 100 scale
Outline: as §1

rice = test: Test C flooded paddy test; type: in vivo, Oryza sativa; conditions: Flood
Excerpt: (§2) At time of treatment, test pots were flooded to 3 cm above the soil surface, treated by application of test compounds directly to the paddy water, and then maintained at that water depth for the duration of the test. Treated plants and controls were maintained in a greenhouse for 13 to 15 days, after which time all species were compared to controls and visually evaluated. […] A dash (-) response means no test result.

umbrella sedge = test: Test C flooded paddy test; type: in vivo, Cyperus difformis; conditions: Flood
Excerpt: as §2

duck salad = test: Test C flooded paddy test; type: in vivo, Heteranthera limosa; conditions: Flood
Excerpt: as §2

barnyardgrass [2] = test: Test C flooded paddy test; type: in vivo, Echinochloa crus-galli; conditions: Flood
Excerpt: as §2

[3] = Postemergence, 500 g ai/ha, 0 is no effect, 100 is complete control
[4] = Preemergence, 125 g ai/ha, 0 no effect, 100 complete control
[5] = Preemergence, 500 g ai/ha, 0 no effect, 100 complete control
[6] = 31 g ai/ha, scale 0 to 100 (0 no effect, 100 complete control)
[7] = 62 g ai/ha, scale 0 to 100 (0 no effect, 100 complete control)
[8] = 125 g ai/ha, scale 0 to 100, 0 no effect, 100 complete control, 13 to 15 days
[9] = 250 g ai/ha, scale 0 to 100, 0 no effect, 100 complete control, 13 to 15 days

Cc1ccc[n+]([O-])c1S(=O)(=O)Cc1c(C(F)(F)F)nn(C)c1OC(F)F [Compound 113]
30: Plant response rating, Morningglory (morningglory; Postemergence, 125 g ai/ha)
50: Pigweed plant response rating (redroot pigweed; [3]) | Velvetleaf plant response rating (velvetleaf; [3])
0: Velvetleaf plant response rating (velvetleaf; [4]) | Wheat plant response rating (wheat; [4]) | Plant response rating, Corn (corn; Postemergence, 125 g ai/ha) | Corn plant response rating (corn; [4]) | Plant response rating, Rice (rice; [6]) | Plant response rating, Rice (rice; [7]) | Plant response rating, Rice (rice; [8]) | Plant response rating, Rice (rice; [9]) | Plant response rating, Sedge, Umbrella (umbrella sedge; [6]) | Plant response rating, Sedge, Umbrella (umbrella sedge; [7]) | Plant response rating, Sedge, Umbrella (umbrella sedge; [8]) | Plant response rating, Sedge, Umbrella (umbrella sedge; [9]) | Plant response rating, Ducksalad (duck salad; [6]) | Plant response rating, Ducksalad (duck salad; [7]) | Plant response rating, Ducksalad (duck salad; [8]) | Plant response rating, Ducksalad (duck salad; [9]) | Plant response rating, Barnyardgrass (barnyardgrass [2]; [6]) | Plant response rating, Barnyardgrass (barnyardgrass [2]; [7]) | Plant response rating, Barnyardgrass (barnyardgrass [2]; [8]) | Plant response rating, Barnyardgrass (barnyardgrass [2]; [9])
60: Plant response rating, Crabgrass, Large (crabgrass; Postemergence, 125 g ai/ha) | Plant response rating, Foxtail, Giant (giant foxtail; Postemergence, 125 g ai/ha) | Morningglory plant response rating (morningglory; [3]) | Wheat plant response rating (wheat; [3]) | Wheat plant response rating (wheat; [5]) | Corn plant response rating (corn; [3])
100: Barnyardgrass plant response rating (barnyardgrass [1]; [5]) | Pigweed plant response rating (redroot pigweed; [5])
90: Crabgrass, Large plant response rating (crabgrass; [5]) | Foxtail, Giant plant response rating (giant foxtail; [5])
70: Plant response rating, Barnyardgrass (barnyardgrass [1]; Postemergence, 125 g ai/ha) | Barnyardgrass plant response rating (barnyardgrass [1]; [4])
10: Plant response rating, Pigweed (redroot pigweed; Postemergence, 125 g ai/ha) | Pigweed plant response rating (redroot pigweed; [4])
80: Barnyardgrass plant response rating (barnyardgrass [1]; [3]) | Crabgrass, Large plant response rating (crabgrass; [3]) | Crabgrass, Large plant response rating (crabgrass; [4]) | Foxtail, Giant plant response rating (giant foxtail; [3]) | Foxtail, Giant plant response rating (giant foxtail; [4]) | Morningglory plant response rating (morningglory; [5]) | Corn plant response rating (corn; [5])
40: Plant response rating, Velvetleaf (velvetleaf; Postemergence, 125 g ai/ha) | Velvetleaf plant response rating (velvetleaf; [5]) | Plant response rating, Wheat (wheat; Postemergence, 125 g ai/ha)

Cc1ccc[n+]([O-])c1[S+]([O-])Cc1c(C(F)(F)F)nn(C)c1OC(F)F (stereo not shown) [Compound 112]
0: Plant response rating, Rice (rice; [6]) | Plant response rating, Rice (rice; [7]) | Plant response rating, Rice (rice; [8]) | Plant response rating, Sedge, Umbrella (umbrella sedge; [6]) | Plant response rating, Ducksalad (duck salad; [6]) | Plant response rating, Ducksalad (duck salad; [7]) | Plant response rating, Barnyardgrass (barnyardgrass [2]; [6]) | Plant response rating, Barnyardgrass (barnyardgrass [2]; [7])
20: Plant response rating, Ducksalad (duck salad; [8])
40: Plant response rating, Pigweed (redroot pigweed; Postemergence, 125 g ai/ha) | Wheat plant response rating (wheat; [4]) | Corn plant response rating (corn; [4])
75: Plant response rating, Sedge, Umbrella (umbrella sedge; [8])
70: Plant response rating, Barnyardgrass (barnyardgrass [1]; Postemergence, 125 g ai/ha) | Plant response rating, Crabgrass, Large (crabgrass; Postemergence, 125 g ai/ha) | Crabgrass, Large plant response rating (crabgrass; [4]) | Plant response rating, Foxtail, Giant (giant foxtail; Postemergence, 125 g ai/ha) | Plant response rating, Morningglory (morningglory; Postemergence, 125 g ai/ha) | Velvetleaf plant response rating (velvetleaf; [3]) | Wheat plant response rating (wheat; [5]) | Corn plant response rating (corn; [5])
10: Pigweed plant response rating (redroot pigweed; [4]) | Velvetleaf plant response rating (velvetleaf; [4])
90: Barnyardgrass plant response rating (barnyardgrass [1]; [5]) | Crabgrass, Large plant response rating (crabgrass; [5]) | Morningglory plant response rating (morningglory; [3]) | Morningglory plant response rating (morningglory; [5]) | Pigweed plant response rating (redroot pigweed; [5])
30: Plant response rating, Sedge, Umbrella (umbrella sedge; [7])
80: Barnyardgrass plant response rating (barnyardgrass [1]; [3]) | Crabgrass, Large plant response rating (crabgrass; [3]) | Foxtail, Giant plant response rating (giant foxtail; [3]) | Foxtail, Giant plant response rating (giant foxtail; [4])
15: Plant response rating, Rice (rice; [9]) | Plant response rating, Barnyardgrass (barnyardgrass [2]; [8])
100: Foxtail, Giant plant response rating (giant foxtail; [5])
45: Plant response rating, Barnyardgrass (barnyardgrass [2]; [9])
95: Plant response rating, Sedge, Umbrella (umbrella sedge; [9])
50: Plant response rating, Velvetleaf (velvetleaf; Postemergence, 125 g ai/ha) | Plant response rating, Wheat (wheat; Postemergence, 125 g ai/ha) | Plant response rating, Corn (corn; Postemergence, 125 g ai/ha) | Plant response rating, Ducksalad (duck salad; [9])
60: Barnyardgrass plant response rating (barnyardgrass [1]; [4]) | Morningglory plant response rating (morningglory; [4]) | Pigweed plant response rating (redroot pigweed; [3]) | Velvetleaf plant response rating (velvetleaf; [5]) | Wheat plant response rating (wheat; [3]) | Corn plant response rating (corn; [3])

Cn1nc(C(F)(F)C(F)(F)F)c(CS(=O)(=O)c2cccc[n+]2[O-])c1OCC(F)(F)F [Compound 84]
70: Plant response rating, Barnyardgrass (barnyardgrass [1]; Postemergence, 125 g ai/ha) | Plant response rating, Crabgrass, Large (crabgrass; Postemergence, 125 g ai/ha) | Plant response rating, Foxtail, Giant (giant foxtail; Postemergence, 125 g ai/ha) | Morningglory plant response rating (morningglory; [3]) | Morningglory plant response rating (morningglory; [4]) | Pigweed plant response rating (redroot pigweed; [3]) | Velvetleaf plant response rating (velvetleaf; [3]) | Velvetleaf plant response rating (velvetleaf; [4])
90: Barnyardgrass plant response rating (barnyardgrass [1]; [4]) | Plant response rating, Crabgrass, Large (crabgrass; Preemergence, 500 g ai/ha) | Plant response rating, Morningglory (morningglory; Preemergence, 500 g ai/ha)
100: Plant response rating, Barnyardgrass (barnyardgrass [1]; Preemergence, 500 g ai/ha) | Plant response rating, Foxtail, Giant (giant foxtail; Preemergence, 500 g ai/ha) | Plant response rating, Pigweed (redroot pigweed; Preemergence, 500 g ai/ha) | Plant response rating, Velvetleaf (velvetleaf; Preemergence, 500 g ai/ha) | Plant response rating, Wheat (wheat; Preemergence, 500 g ai/ha) | Plant response rating, Sedge, Umbrella (umbrella sedge; [9])
60: Crabgrass, Large plant response rating (crabgrass; [4]) | Pigweed plant response rating (redroot pigweed; [4]) | Wheat plant response rating (wheat; [3]) | Plant response rating, Barnyardgrass (barnyardgrass [2]; [9])
65: Plant response rating, Rice (rice; [9])
85: Plant response rating, Ducksalad (duck salad; [9])
75: Plant response rating, Sedge, Umbrella (umbrella sedge; [7]) | Plant response rating, Ducksalad (duck salad; [7])
15: Plant response rating, Barnyardgrass (barnyardgrass [2]; [7])
40: Plant response rating, Pigweed (redroot pigweed; Postemergence, 125 g ai/ha) | Wheat plant response rating (wheat; [4]) | Corn plant response rating (corn; [3])
30: Plant response rating, Wheat (wheat; Postemergence, 125 g ai/ha) | Plant response rating, Corn (corn; Preemergence, 500 g ai/ha) | Plant response rating, Rice (rice; [7])
80: Barnyardgrass plant response rating (barnyardgrass [1]; [3]) | Crabgrass, Large plant response rating (crabgrass; [3]) | Foxtail, Giant plant response rating (giant foxtail; [3]) | Foxtail, Giant plant response rating (giant foxtail; [4])
20: Plant response rating, Morningglory (morningglory; Postemergence, 125 g ai/ha) | Plant response rating, Velvetleaf (velvetleaf; Postemergence, 125 g ai/ha)
0: Plant response rating, Corn (corn; Postemergence, 125 g ai/ha) | Corn plant response rating (corn; [4])

Cn1nc(C(F)(F)F)c(C[S+]([O-])c2cc(C(C)(C)C)cc[n+]2[O-])c1OCC(F)(F)F (racemic) [Compound 61]
30: Plant response rating, Barnyardgrass (barnyardgrass [1]; Postemergence, 125 g ai/ha) | Plant response rating, Crabgrass, Large (crabgrass; Postemergence, 125 g ai/ha) | Plant response rating, Corn (corn; Postemergence, 125 g ai/ha) | Plant response rating, Barnyardgrass (barnyardgrass [2]; [7]) | Plant response rating, Barnyardgrass (barnyardgrass [2]; [9])
60: Crabgrass, Large plant response rating (crabgrass; [3]) | Morningglory plant response rating (morningglory; [4]) | Pigweed plant response rating (redroot pigweed; [3]) | Wheat plant response rating (wheat; [3])
50: Plant response rating, Foxtail, Giant (giant foxtail; Postemergence, 125 g ai/ha) | Plant response rating, Wheat (wheat; Postemergence, 125 g ai/ha) | Wheat plant response rating (wheat; [4]) | Plant response rating, Corn (corn; Preemergence, 500 g ai/ha) | Plant response rating, Rice (rice; [9])
70: Crabgrass, Large plant response rating (crabgrass; [4]) | Foxtail, Giant plant response rating (giant foxtail; [3]) | Morningglory plant response rating (morningglory; [3]) | Velvetleaf plant response rating (velvetleaf; [3]) | Corn plant response rating (corn; [3])
90: Plant response rating, Ducksalad (duck salad; [9])
20: Plant response rating, Rice (rice; [7])
100: Plant response rating, Barnyardgrass (barnyardgrass [1]; Preemergence, 500 g ai/ha) | Plant response rating, Crabgrass, Large (crabgrass; Preemergence, 500 g ai/ha) | Foxtail, Giant plant response rating (giant foxtail; [4]) | Plant response rating, Foxtail, Giant (giant foxtail; Preemergence, 500 g ai/ha) | Plant response rating, Morningglory (morningglory; Preemergence, 500 g ai/ha) | Plant response rating, Pigweed (redroot pigweed; Preemergence, 500 g ai/ha) | Plant response rating, Velvetleaf (velvetleaf; Preemergence, 500 g ai/ha) | Plant response rating, Wheat (wheat; Preemergence, 500 g ai/ha) | Plant response rating, Sedge, Umbrella (umbrella sedge; [9])
40: Plant response rating, Pigweed (redroot pigweed; Postemergence, 125 g ai/ha)
0: Barnyardgrass plant response rating (barnyardgrass [1]; [4]) | Plant response rating, Morningglory (morningglory; Postemergence, 125 g ai/ha) | Plant response rating, Velvetleaf (velvetleaf; Postemergence, 125 g ai/ha) | Velvetleaf plant response rating (velvetleaf; [4]) | Corn plant response rating (corn; [4]) | Plant response rating, Sedge, Umbrella (umbrella sedge; [7]) | Plant response rating, Ducksalad (duck salad; [7])
80: Barnyardgrass plant response rating (barnyardgrass [1]; [3]) | Pigweed plant response rating (redroot pigweed; [4])
